# Laboratory results reported in patent US20180000782A1, “THERAPEUTIC AGENT FOR KERATOCONJUNCTIVE DISORDERS” (priority 2012, published 2018).
# Key:
# [1] = tested on: male Japanese white rabbits; assay: Suppression of corneal opacity and ulceration, LPS injected into the corneal stroma; format: in vivo, rabbit; conditions: 0.1% R667 (24 mM), 50 μl instillation, four times daily until day 10; 1% LPS into the corneal stroma; FIG. 6B
# Experimental: Systemic anesthesia was applied to male Japanese white rabbits (body weight 2.5-3.5 kg, 27 rabbits) by intramuscular administration of a solution of a mixture of ketamine and xylazine. Then, topical anesthesia was applied by a 0.4% oxybuprocaine hydrochloride instillation. Furthermore, 30 μl of 1% LPS (Sigma Aldrich) was injected into the corneal stroma of one eye, but not in the other eye.
# 50 μl of 0.1% PBS/0.1% polysorbate 80 solution containing RARγ agonist A (R667: 0.1%, 24 mM) was instillatively administered to the rabbits injected with LPS twice after the injection on the day of LPS injection and four times daily thereafter until day 10 by using a micropipette. As a control, a 0.1% PBS/0.1% polysorbate 80 solution free of RARγ agonist A (Vehicle) was similarly administered. FIGS. 6A and 6B show representative examples of a control and a case where RARγ agonist A was administered.
# primary keratocytes [2] = assay: Suppression of three-dimensional collagen gel degradation in primary keratocytes by RARγ agonist A, B or C (Example 3); format: cell-based, rabbit; conditions: R667 1 nM, CD437 1 nM and 10 nM, BMS961 10 nM; stimulant IL-1β 10 ng/ml and Plasminogen 60 μg/ml; 48 hours; FIG. 4
# Experimental: As in Example 1, primary keratocytes were grown and detached from a culture slide. After washing, a cell suspension was made. The resulting suspension (1.1×10^7 cells/well MEM), type I collagen solution (5 mg/ml), 10×MEM, Reconstitution Buffer, and water were mixed on ice at 0.2:7:1:1:1.8 (volume ratio). A culture dish coated with 1% BSA was inoculated with 0.5 ml of the mixture, which was incubated for one hour at 37° C. to make a collagen gel.
# After 48 hours of culturing, collagen was hydrolyzed and the amount of hydroxyproline, which is the collagen degradation product, was measured by the same method as Example 1 to assess the effect of suppressing collagen degradation of each RARγ agonist.
# [3] = tested on: primary subconjunctival fibroblasts; assay: Suppression of three-dimensional collagen gel contraction, primary subconjunctival fibroblasts (Example 2); format: cell-based, rabbit; conditions: TGF-β1 1 ng/ml, RARγ agonist A 1, 10, 100 nM, after 48 hours, FIG. 2
# Experimental: (§1) Primary subconjunctival fibroblasts and primary keratocytes were used to assess the suppression effect of a tested compound on three-dimensional collagen gel contraction in accordance with the method of Nishida et al. As in Example 1, primary subconjunctival fibroblasts were grown and detached from a culture slide. After washing, a cell suspension was made. The resulting suspension (1.1×10^7 cells/well MEM), type I collagen solution (5 mg/ml), 10×MEM, Reconstitution Buffer, and water were mixed on ice at 0.2:7:1:1:1.8 (volume ratio). A culture dish coated with 1% BSA was inoculated with 0.5 ml of the mixture, which was incubated for one hour at 37° C. to make a collagen gel. Then, 0.5 ml of serum free media, to which a certain amount (1 ng/ml) of TGF-β1 (R&D Systems) and RARγ agonist A at each of the concentrations 1 nM, 10 nM, and 100 nM were added, were each added onto the above-described gel. The gel, together with a gel to which an agent-free serum-free medium was added, was continuously incubated at 37° C. The diameter of gels was measured from the time when 24 hours has past.
# MMP-3 = assay: Suppression of expression and activation of MMP-3, western blot of keratocyte supernatant; format: cell-based, rabbit; conditions: R667 1×10^−6 to 1×10^−2 μM, 12 hours of pre-treatment; IL-113 0.1 ng/ml, 24 hours; FIG. 5A
# Experimental: (§2) It is believed that secretion or expression of protease, i.e., matrix metalloproteinases (MMP), is associated with the degradation of type I collagen. In this regard, suppression of expression and activation of MMP-1, 2, 3, and 9 by RARγ agonist A was investigated. Primary keratocytes collected from a normal rabbit eye ball were cultured for 24 hours in a serum-free MEM medium. RARγ agonist A ([…]) ([…] concentration: 1×10^-6 μM, 1×10^-5 μM, 1×10^-4 μM, 1×10^-3 μM, 1×10^-2 μM) was added to the obtained culture solution and 12 hours of pre-treatment was performed. As a positive control, 10 nM of dexamethasone (Dex), which is a synthetic steroid, was added and pre-treatment was similarly performed. Then, IL-113 (0.1 ng/ml) was added for stimulation, and the supernatant was collected after 24 hours. The following western blot analysis and gelatin zymography analysis were used on the collected culture solution. After developing the supernatant of the collected culture solution in SDS-PAGE using 10% polyacrylamide gel, the separated proteins were transferred onto a nitrocellulose filter. Then, non-specific sites on the nitrocellulose filter were blocked and incubated for 24 hours at 4° C. with anti-human MMP-1 antibodies (R&D Systems) and anti-rabbit MMP-3 antibodies (Daiichi Fine Chemical Co., Ltd). ECL® reagent (GE Healthcare) was used for detection.
# primary keratocytes [4] = assay: Suppression of three-dimensional collagen gel contraction, primary keratocytes (Example 2); format: cell-based, rabbit; conditions: TGF-β1, FIG. 3
# Experimental: as §1, with “past. The gel diameter was measured for primary keratocytes in a similar manner to the primary subconjunctival fibroblasts.” for “past.”
# MMP-1 = assay: Suppression of expression and activation of MMP-1, western blot of keratocyte supernatant; format: cell-based, rabbit; conditions: R667 1×10^−6 to 1×10^−2 μM, 12 hours of pre-treatment; 0.1 ng/ml, 24 hours; FIG. 5A
# Experimental: as §2
# MMP-9 = assay: Suppression of expression and activation of MMP-9, gelatin zymography of keratocyte supernatant; format: cell-based, rabbit; conditions: R667 1×10^−6 to 1×10^−2 μM, 12 hours of pre-treatment; IL-113 0.1 ng/ml, 24 hours; FIG. 5B
# Experimental: (§3) It is believed that secretion or expression of protease, i.e., matrix metalloproteinases (MMP), is associated with the degradation of type I collagen. In this regard, suppression of expression and activation of MMP-1, 2, 3, and 9 by RARγ agonist A was investigated. Primary keratocytes collected from a normal rabbit eye ball were cultured for 24 hours in a serum-free MEM medium. RARγ agonist A ([…]) ([…] concentration: 1×10^-6 μM, 1×10^-5 μM, 1×10^-4 μM, 1×10^-3 μM, 1×10^-2 μM) was added to the obtained culture solution and 12 hours of pre-treatment was performed. As a positive control, 10 nM of dexamethasone (Dex), which is a synthetic steroid, was added and pre-treatment was similarly performed. Then, IL-113 (0.1 ng/ml) was added for stimulation, and the supernatant was collected after 24 hours. The following western blot analysis and gelatin zymography analysis were used on the collected culture solution. After developing the supernatant of the collected culture solution on SDS-PAGE using 10% polyacrylamide gel containing 0.1% of gelatin, it was incubated for one hour at room temperature with a TBS solution containing 2.5% Triton X-100. The gel after incubation was dyed with a solution of Coomassie Brilliant Blue (Wako Pure Chemical Industries, Ltd.) and decolored with a 5% methanol-7.5% acetic acid solution (Nacalai Tesque, Inc).
# [5] = tested on: normal rabbit primary keratocytes; assay: Suppression of three-dimensional collagen gel degradation in normal rabbit primary keratocytes (Example 1); format: cell-based; conditions: R667 0.1-1000 nM; stimulant 10 ng/ml and Plasminogen 60 μg/ml; 48 hours of culturing; FIG. 1
# Experimental: Normal rabbit corneal cells were used to assess the suppression effect of a tested compound on three-dimensional collagen gel degradation in accordance with the method of Nishida et al (Investigative Ophthalmology & Visual Science 42: 1247-1253 (2001)).
# Primary keratocytes collected from a normal rabbit eye ball was grown to a confluent state and detached from a culture slide with 0.05% Trypsin-EDTA. After washing in a serum free medium (product number 11095; Gibco), the number of cells were counted. The obtained primary keratocytes were mixed with the type I collagen solution Cellmatrix Type I-A (product number 637-00653; Nitta Gelatin Inc.) and Reconstitution Buffer (product number 635-00791; Nitta Gelatin Inc.) and dispensed into a 24-well plate so that the final concentration would be 1×10^5 cells/well to make a collagen gel. […]
# After 48 hours of culturing, the supernatant was ultrafiltrated, 100 μl of concentrated hydrochloric acid was added and heated, and the collagen was hydrolyzed. […] The amount of hydroxyproline, which is the collagen degradation product in the solution, was measured in accordance with the method of Bergman et al (Analytical Chemistry 35(12): 1961-1965 (1963)) to assess the effect of suppressing collagen degradation of RARγ agonist A. The results are shown in FIG. 1.
# MMP-2 = assay: Suppression of expression and activation of MMP-2, gelatin zymography of keratocyte supernatant; format: cell-based, rabbit; conditions: R667 1×10^−6 to 1×10^−2 μM, 12 hours of pre-treatment; 0.1 ng/ml, 24 hours; FIG. 5B
# Experimental: as §3
smiles,measurement,setting,value
"CC1(C)CCC(C)(C)c2cc(Cn3cccn3)c(/C=C/c3ccc(C(=O)O)cc3)cc21 [RARγ agonist A, (E)-4-(2-{3-[(1H-pyrazole-1-yl)methyl]-5,5,8,8-tetramethyl-5,6,7,8-tetrahydronaphthalene-2-yl}vinyl)benzoic acid]",corneal opacity and ulceration,[1],corneal opacity and ulceration were not observed
same,effect of suppressing collagen degradation (ratio of amount of hydroxyproline),primary keratocytes [2],exhibited an effect of suppressing keratoconjunctive collagen degradation
same,suppression of collagen gel contraction (diameter of collagen gel),[3],can suppress
same,expression and activation of MMP-3 (bands of Pro-MMP-3 and active MMP-3),MMP-3,concentration-dependently suppresses
same,suppression of collagen gel contraction (diameter of collagen gel),primary keratocytes [4],can suppress
same,expression and activation of MMP-1 (bands of Pro-MMP-1 and active MMP-1),MMP-1,concentration-dependently suppresses
same,expression and activation of MMP-9 (bands of Pro-MMP-9 and active MMP-9),MMP-9,concentration-dependently suppresses
same,effect of suppressing collagen degradation (amount of hydroxyproline),[5],dosage-dependent effect of suppressing keratoconjunctive collagen degradation
same,expression and activation of MMP-2 (bands of Pro-MMP-2 and active MMP-2),MMP-2,concentration-dependently suppresses
